Assay results taken from PMC12051030, “Identification of inhibitors of the Salmonella FraB deglycase, a drug target” (FEBS Open Bio, 2025).
Where two headings read alike, the source gives them in different places.

Tests used:
[1] = molecular target: His6‐FraB (Salmonella FraB deglycase) (Salmonella enterica subsp. enterica serovar Typhimurium, UniProt Q8ZLD0); experiment: FraB-G6PD coupled assay, Michaelis–Menten analysis for K I and mode of inhibition; assay type: biochemical; conditions: for change of IC50 values with increasing [S]/K m: 'this trend' = IC50 does not vary with [S]/K m, change evident only from 0.2 to 1.6× [S]/K m; for slope in plots of 1/IC50 vs. v o/V max: Fig. S12; for K IU/K IC ratio: average (±SE), from 1/IC50 versus v o/V max plots; for mode of inhibition: kinetic analyses (Lineweaver‐Burk, α′ vs [I], IC50 vs [S]/K m, 1/IC50 vs v o/V max)
Protocol: To determine the K I of each inhibitor, 29 μL of master mix was added to two rows of a 384‐well Greiner plate, using a single‐channel pipette, and incubated at 20 °C for 20 min. A 12‐channel pipette was then used to transfer and mix 1 μL of varying [6‐P‐F‐Asp] to all 48 wells. The final reaction (30 μL) consisted of 25 mM HEPES pH 8.0 at 20 °C, 5 mM MgCl2, 0.1 mM EGTA, 0.5 mM NAD^+, 1 mU G6PD, 100 nM His6‐FraB, varying (6‐P‐F‐Asp) (between 8 and 12 concentrations), and varying [inhibitor] (between three and five concentrations) in 10% (v/v) DMSO. NADH fluorescence was monitored every 10 s for 10 min total on a SPARK® multi‐mode multiplate reader (Tecan), as described above, and plotted against time. Slopes of the linear range of each curve were converted to initial velocities, as described above, that were then plotted against [6‐P‐F‐Asp]. A hyperbolic curve was then fitted to the data to obtain the k cat and K m values according to the formula: v o = (V max × [S])/(K m + [S]).
To determine the correlation between the observed and expected initial velocities (Fig. S5A), these values were exported from Kaleidagraph, plotted against one another, and a curve was fit using the formula: y = mx + b. The differences between observed and expected initial velocities (residuals) were then depicted as box‐and‐whisker plots (Fig. S5B). Lineweaver‐Burk plots were generated by graphing 1/v o versus 1/[S] and curves were fit to the data with Kaleidagraph using the formula: 1/v o = (Km/V max).(1/[S]) + (1/V max). The k cat and K m parameters were then converted into α′ values by dividing the k cat of the control (no inhibitor) by either itself (α′= 1) or the k cat of test samples with variable [inhibitor]. Those α′ values were plotted against [inhibitor] and K I values were determined from the equation α = 1 + [I]/K I.
The initial velocities used to generate the Michaelis–Menten plots were also employed to obtain the IC50 vs [S]/K m plots. For a given [S], initial velocities were converted into relative activities and plotted versus [inhibitor]. […] The IC50 values determined from the IC50 vs [S]/K m plots were then used to plot 1/IC50 versus v o/V max. A curve was fit to the data using the formula: y = mx + b. The Y‐intercept of the 1/IC50 versus v o/V max plot is equal to 1/K IC, and the slope, for mixed inhibitors, is equal to 1/K IU – 1/K IC. […] Data analyses were performed as described above (see Tables S1–S7 for curve‐fit errors and goodness‐of‐fit values).

[2] = system: Salmonella tolC mutant; experiment: Growth assay, Salmonella tolC mutant in wild‐type or fra island mutant background; assay type: cell-based; conditions: early finding; could not be replicated after multiple attempts with stocks from different suppliers (data not shown)
Description: We sought to examine the possibility that some of the hits in the biochemical HTS were not picked up in the cell‐based assays due to efficient efflux mechanisms in Salmonella. Because TolC is an outer membrane protein channel that is essential for the ability of seven of the 10 inner membrane drug‐efflux transporters to expel structurally diverse molecules, we generated a Salmonella tolC mutant and tested the 121 compounds that we purchased (Sabag‐Daigle, A. & Ahmer, B. M. M., unpublished results). The tests were conducted in parallel using the tolC mutant in a wild‐type or fra island mutant background; the latter lacks the entire fra locus and is incapable of catabolizing F‐Asn and forming 6‐P‐F‐Asp. Thus, any inhibitor specific for FraB (and which was being effluxed in the wild‐type) will inhibit the tolC mutant in a wild‐type but not the fra island mutant background. A caveat is that efflux of compounds may also be achieved via TolC‐independent drug‐efflux pumps.

[3] = Trial 1, 6-P-F-Asp 7.38 µM, S/Km 0.175714, unit from Fig. S11 axis, read-out: IC50 (IC50 versus [S]/Km plots)
[4] = Trial 1, 6-P-F-Asp 15.7 µM, S/Km 0.37381, unit from Fig. S11 axis, read-out: IC50 (IC50 versus [S]/Km plots)
[5] = Trial 1, 6-P-F-Asp 31.3 µM, S/Km 0.745238, unit from Fig. S11 axis, read-out: IC50 (IC50 versus [S]/Km plots)
[6] = Trial 1, 6-P-F-Asp 62.5 µM, S/Km 1.488095, unit from Fig. S11 axis, read-out: IC50 (IC50 versus [S]/Km plots)
[7] = Trial 1, 6-P-F-Asp 125 µM, S/Km 2.97619, unit from Fig. S11 axis, read-out: IC50 (IC50 versus [S]/Km plots)
[8] = Trial 1, 6-P-F-Asp 250 µM, S/Km 5.952381, unit from Fig. S11 axis, read-out: IC50 (IC50 versus [S]/Km plots)
[9] = Trial 1, 6-P-F-Asp 500 µM, S/Km 11.90476, unit from Fig. S11 axis, read-out: IC50 (IC50 versus [S]/Km plots)
[10] = Trial 1, 6-P-F-Asp 750 µM, S/Km 17.85714, unit from Fig. S11 axis, read-out: IC50 (IC50 versus [S]/Km plots)
[11] = Trial 1, 6-P-F-Asp 1000 µM, S/Km 23.80952, unit from Fig. S11 axis, read-out: IC50 (IC50 versus [S]/Km plots)
[12] = Trial 1, 6-P-F-Asp 2000 µM, S/Km 47.61905, unit from Fig. S11 axis, read-out: IC50 (IC50 versus [S]/Km plots)
[13] = Trial 1, 6-P-F-Asp 3000 µM, S/Km 71.42857, unit from Fig. S11 axis, read-out: IC50 (IC50 versus [S]/Km plots)
[14] = Trial 2, 6-P-F-Asp 7.38 µM, S/Km 0.175714, unit from Fig. S11 axis, read-out: IC50 (IC50 versus [S]/Km plots)
[15] = Trial 2, 6-P-F-Asp 15.7 µM, S/Km 0.37381, unit from Fig. S11 axis, read-out: IC50 (IC50 versus [S]/Km plots)
[16] = Trial 2, 6-P-F-Asp 31.3 µM, S/Km 0.745238, unit from Fig. S11 axis, read-out: IC50 (IC50 versus [S]/Km plots)
[17] = Trial 2, 6-P-F-Asp 62.5 µM, S/Km 1.488095, unit from Fig. S11 axis, read-out: IC50 (IC50 versus [S]/Km plots)
[18] = Trial 2, 6-P-F-Asp 125 µM, S/Km 2.97619, unit from Fig. S11 axis, read-out: IC50 (IC50 versus [S]/Km plots)
[19] = Trial 2, 6-P-F-Asp 250 µM, S/Km 5.952381, unit from Fig. S11 axis, read-out: IC50 (IC50 versus [S]/Km plots)
[20] = Trial 2, 6-P-F-Asp 500 µM, S/Km 11.90476, unit from Fig. S11 axis, read-out: IC50 (IC50 versus [S]/Km plots)
[21] = Trial 2, 6-P-F-Asp 750 µM, S/Km 17.85714, unit from Fig. S11 axis, read-out: IC50 (IC50 versus [S]/Km plots)
[22] = Trial 2, 6-P-F-Asp 1000 µM, S/Km 23.80952, unit from Fig. S11 axis, read-out: IC50 (IC50 versus [S]/Km plots)
[23] = Trial 2, 6-P-F-Asp 2000 µM, S/Km 47.61905, unit from Fig. S11 axis, read-out: IC50 (IC50 versus [S]/Km plots)
[24] = Trial 2, 6-P-F-Asp 3000 µM, S/Km 71.42857, unit from Fig. S11 axis, read-out: IC50 (IC50 versus [S]/Km plots)
[25] = from Michaelis–Menten analysis of FraB at different inhibitor concentrations, average and standard error from two measurements, read-out: K I

Chain of His6‐FraB (Salmonella FraB deglycase) (Q8ZLD0 entry or part of it): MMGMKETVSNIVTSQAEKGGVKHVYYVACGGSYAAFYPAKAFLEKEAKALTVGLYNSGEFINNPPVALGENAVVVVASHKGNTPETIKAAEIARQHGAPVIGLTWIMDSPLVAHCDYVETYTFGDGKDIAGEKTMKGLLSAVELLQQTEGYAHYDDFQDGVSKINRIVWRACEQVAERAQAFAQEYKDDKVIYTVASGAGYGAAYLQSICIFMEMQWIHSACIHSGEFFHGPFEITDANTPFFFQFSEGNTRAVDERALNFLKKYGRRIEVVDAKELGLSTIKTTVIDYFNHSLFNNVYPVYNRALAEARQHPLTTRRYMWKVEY

| Compound | change of IC50 values with increasing [S]/K m [1] | slope in plots of 1/IC50 vs. v o/V max [1] | IC50 [1, 3] | IC50 [1, 4] | IC50 [1, 5] | IC50 [1, 6] | IC50 [1, 7] | IC50 [1, 8] | IC50 [1, 9] | IC50 [1, 10] | IC50 [1, 11] | IC50 [1, 12] | IC50 [1, 13] | IC50 [1, 14] | IC50 [1, 15] | IC50 [1, 16] | IC50 [1, 17] | IC50 [1, 18] | IC50 [1, 19] | IC50 [1, 20] | also measured |
| --- | --- | --- | --- | --- | --- | --- | --- | --- | --- | --- | --- | --- | --- | --- | --- | --- | --- | --- | --- | --- | --- |
| O=c1sn(-c2ccccc2C(F)(F)F)c(=O)n1CC1CC1 [1524:G12, 4‐(cyclopropylmethyl)‐2‐[2‐(trifluoromethyl)phenyl]‐1,2,4‐thiadiazolidine‐3,5‐dione] | exhibit this trend | no | 1.08 µM | 1.39 µM | 1.54 µM | 1.44 µM | 1.55 µM | 1.47 µM | 1.59 µM | 1.51 µM | 1.36 µM | 1.44 µM | 1.65 µM | 1.91 µM | 1.49 µM | 1.54 µM | 1.64 µM | 1.36 µM | 1.27 µM | 1.41 µM | IC50 [1, 21]: 1.42 µM; IC50 [1, 22]: 1.44 µM; IC50 [1, 23]: 1.37 µM; IC50 [1, 24]: 1.66 µM; K IU/K IC ratio [1]: 0.9 ± 0.1; Ki [1, 25]: 1 µM; mode of inhibition [1]: pure noncompetitive inhibitors |
| Cc1cccc(Cl)c1-n1sc(=O)n(CC2CC2)c1=O [1524:E12, 2‐(2‐chloro‐6‐methylphenyl)‐4‐(cyclopropylmethyl)‐1,2,4‐thiadiazolidine‐3,5‐dione] | exhibit this trend | no | 5.182 µM | 4.4596 µM | 6.2505 µM | 5.0417 µM | 4.4301 µM | 4.497 µM | 4.5819 µM | 4.2959 µM | 4.7019 µM | 4.852 µM | 5.5036 µM | 4.2249 µM | 5.1146 µM | 4.8438 µM | 5.1187 µM | 5.0178 µM | 5.2509 µM | 4.9663 µM | IC50 [1, 21]: 4.9173 µM; IC50 [1, 22]: 5.0782 µM; IC50 [1, 23]: 5.2035 µM; IC50 [1, 24]: 5.7824 µM; K IU/K IC ratio [1]: 0.95 ± 0.05; Ki [1, 25]: 4 µM; mode of inhibition [1]: pure noncompetitive inhibitors; IC50, mean and standard deviation of all IC50 values in IC50 vs [S]/Km plot ([1]; trial shown in Fig. S11 panels M-X): 5 ± 0.4 µM; IC50, mean and standard deviation of all IC50 values in IC50 vs [S]/Km plot ([1]; trial shown in Fig. S11 panels Y-AJ): 5 ± 0.6 µM |
| c1ccc(-c2nnc3sc(C4COc5ccccc5O4)nn23)nc1 (stereo not drawn) [3469:F02, 6‐(2,3‐dihydro‐1,4‐benzodioxin‐3‐yl)‐3‐pyridin‐2‐yl‐[1,2,4]triazolo[3,4‐b][1,3,4]thiadiazole] | slight increase | weakly negative | 18.9 µM | 27.6 µM | 33.5 µM | 27.9 µM | 34 µM | 31.8 µM | 32.7 µM | 33.7 µM | 33.9 µM | 36.1 µM | 52.6 µM | 41.2 µM | 41.3 µM | 51.7 µM | 51.3 µM | 49.2 µM | 47.8 µM | 46.1 µM | IC50 [1, 21]: 45.4 µM; IC50 [1, 22]: 48.9 µM; IC50 [1, 23]: 59.2 µM; IC50 [1, 24]: 67.2 µM; K IU/K IC ratio [1]: 1.35 ± 0.25; Ki [1, 25]: 28.5 ± 3.5 µM; mode of inhibition [1]: mixed‐type competitive; IC50 ([1]; trial shown in Fig. S11 panels M-X, read-out: IC50, mean and standard deviation of all IC50 values in IC50 vs [S]/Km plot): 50 ± 8 µM; Ki ([1]; trial shown in Fig. S11 panels M-X, read-out: KI from α′ vs [I] plot): 25 µM; Ki ([1]; trial shown in Fig. S11 panels Y-AJ, read-out: KI from α′ vs [I] plot): 32 µM; inhibition of growth of Salmonella tolC, fra‐dependent [2]: initially shown to inhibit the growth of Salmonella tolC in a fra‐dependent manner |
| O=c1[nH][nH]c(=S)n1Cc1ccccc1 [1533:K12, 4‐benzyl‐5‐sulfanylidene‐1,2,4‐triazolidin‐3‐one] | modest decrease | weakly positive | 26.2 µM | 24.1 µM | 18.5 µM | 18.3 µM | 18.1 µM | 19.6 µM | 18.7 µM | 20.1 µM | 16.7 µM | 18.6 µM | 21.2 µM | 24.9 µM | 24.7 µM | 26.5 µM | 25.9 µM | 24 µM | 23.8 µM | 21.8 µM | IC50 [1, 21]: 20.5 µM; IC50 [1, 22]: 21.1 µM; IC50 [1, 23]: 20.8 µM; IC50 [1, 24]: 20.7 µM; K IU/K IC ratio [1]: 0.75 ± 0.05; Ki [1, 25]: 12 ± 1 µM; Ki ([1]; independent trial shown in Fig. S11 panels A-L, read-out: KI from α′ vs [I] plot): 13 µM; mode of inhibition [1]: mixed‐type uncompetitive; IC50 ([1]; single trial shown in Fig. 5, read-out: IC50, mean and standard deviation of all IC50 values in IC50 vs [S]/Km plot): 23 ± 2 µM; Ki ([1]; single trial shown in Fig. 5, read-out: KI from α′ vs [I] plot): 11 µM |
